# In publication PMC10480161, “Identification of potent and selective N-myristoyltransferase inhibitors of Plasmodium vivax liver stage hypnozoites and schizonts” (Nature Communications, 2023):
# “And” between values parts separate entries of the source, which are not always exact repeats. Equal values may be shown once.
# What was measured:
# P. vivax hypnozoites = assay: P. vivax liver stage assay, hypnozoites; assay type: cell-based, Plasmodium vivax; conditions: for Hypnozoites per well: Isolate 2, replicate wells (Figure 6d); for Number of liverstage hypnozoites per well: 8 dpi; for IC50: Hepatocyte, 120 h, primary human hepatocytes, treatment day 5 to 8 post-infection, isolate 2
# Description: Finally, we evaluated the NMT-binding compounds against non-developing P. vivax hypnozoites. […] (Fig. 6A). […] We, therefore, evaluated the impact of all tested compounds on P. vivax hypnozoites using these two isolates.
# (§1) Plasmodium vivax liver stage assays were performed as described previously. Cryopreserved primary human hepatocytes (Cat No. F00995-P) and hepatocyte culture medium (HCM) (InVitroGroTM CP Medium) were obtained from Bioreclamation IVT, Inc., (Baltimore, MD, USA). Briefly, we seeded 384-well plates with primary hepatocytes from a single donor lot at a density of 25,000 cells per well. We then infected the hepatocytes with 14,000 freshly hand-dissected sporozoites per well. Cells were exposed to the compounds at indicated concentrations from day 5 post-infection. We used Pi4K inhibitor MMV390048, at 20 µM, as a positive control to eliminate P. vivax liver schizonts. We then proceeded to feed cultures every day, replacing the compounds until day 8 post-infection. Cells were fixed with 4% PFA, permeabilized with 1% Triton X-100, blocked with 2% BSA, and stained with DAPI and PvUIS4 antibodies to detect schizonts and hypnozoites forms by confocal microscopy. For antibody dilutions, PvUIS4 (kind gift from Dr. Noah Sather, Seattle Children’s Research Institute) was diluted 1:250 and the secondary antibody was anti-mouse AlexaFluor-594 (Cat # A-11005; RRID: AB_2534073) diluted 1:1000. DAPI was diluted 1:2000. The images were processed, analyzed and outlier cells were removed using IMARIS (Bitplane Inc.) image analysis software.
# [1] = system: primary human hepatocytes; assay: Nuclear counts (DAPI) in P. vivax-infected primary hepatocytes as measure of toxicity; assay type: cell-based; conditions: two technical replicates
# Description: Accordingly, we applied dose–response curves of all the tested NMTs on parasite isolates 2 and 3 over concentrations up to 20 µM (Fig. 5c, d, Source Data file). […] Nuclei were counted in each well using DAPI staining as a measure of toxicity (Supplementary Fig. 86, Supplementary Source data). We used the phosphatidylinositol 4-kinase inhibitor (PI4Ki), MMV390048, as a positive control for eliminating schizonts[37],[38].
# as §1, with “For antibody dilutions, PvUIS4 (kind gift from Dr. Noah Sather, Seattle Children’s Research Institute) was diluted 1:250 and the secondary antibody was anti-mouse AlexaFluor-594 (Cat # A-11005; RRID: AB_2534073) diluted 1:1000.” left out
# Supplementary Fig. 86. […] Nuclear […]
# counts, normalized to DMSO controls, for NMT inhibitors across a dose response. Counts were ob-tained using DAPI staining from the P. vivax-infected wells quantified in Fig. 5d. Error bars represent the standard deviation of two technical replicates.
# (1 picture or pasted object on this page, not shown here)
# HepG2 cells = assay: HepG2 cytotoxicity assay (Live/Dead staining); conditions: replicates
# Description: Therefore, we assessed cytotoxicity in the human hepatoma HepG2 cell line. We required a PvNMT to HsNMT SI > 20 for further screening. HepG2 cells were exposed to the compounds at concentrations ranging from 1 to 20 µM for […], and toxicity was assessed via live-dead staining.
# The viability of the HepG2 cell line following exposure to the compounds was determined by a Live/Dead cell assay kit (Invitrogen). Briefly, cells were added to a 96-well plate at a concentration of 5000 cells per well, excluding the exterior wells. Cells were exposed to the compounds at different concentrations ranging from 1 to 20 µM. Cells were washed every 24 h and supplemented with fresh doses of compounds. At 72 h post-treatment, 1 µM calcein-AM and 1 µM ethidium homodimer were added to the wells and incubated for 10 min at 37 °C. After washing with PBS, the cells were visualized with fluorescent microscopy (Keyence BZ-X700).
# P. vivax schizonts = assay: P. vivax liver stage assay, schizonts; assay type: cell-based, Plasmodium vivax; conditions: for Number of liverstage Schizonts per well: 20 µM, 8 dpi; for IC50: Plasmodium vivax, Hepatocyte, 120 h, primary human hepatocytes, treatment day 5 to 8 post-infection, isolates 2 and 3
# Description: We next evaluated the candidate compounds against liver-stage P. vivax (Fig. 5). P. vivax sporozoites were obtained from three independent patient isolates and cultured in primary human hepatocytes from a single donor lot using a 384-well microculture system as described previously. Cells were infected and treated with NMTis at 20 µM beginning day 5 post-infection until day 8 when the infection rates were quantified by fluorescent microscopy.
# Accordingly, we applied dose–response curves of all the tested NMTs on parasite isolates 2 and 3 over concentrations up to 20 µM (Fig. 5c, d, Source Data file). We observed similar kinetics for all inhibitors, with a gradual decrease in parasite load upon increasing the drug concentration. […] Nuclei were counted in each well using DAPI staining as a measure of toxicity (Supplementary Fig. 86, Supplementary Source data). We used the phosphatidylinositol 4-kinase inhibitor (PI4Ki), MMV390048, as a positive control for eliminating schizonts[37],[38].
# as §1
# [2] = 20 µM, isolate 1, technical replicates (Fig. 6C)
# [3] = 20 µM, isolate 2, technical replicates (Fig. 6C)
# [4] = 20 µM, isolate 3, technical replicates (Fig. 6C)
# [5] = isolate 1, technical replicates (Fig. 5b)
# [6] = isolate 2, technical replicates (Fig. 5b)
# [7] = isolate 3, technical replicates (Fig. 5b)
SMILES,Hypnozoites per well (P. vivax hypnozoites; 1.25 uM),Hypnozoites per well (P. vivax hypnozoites; 2.5 uM),Hypnozoites per well (P. vivax hypnozoites; 5 uM),Hypnozoites per well (P. vivax hypnozoites; 10 uM),Number of liverstage hypnozoites per well (P. vivax hypnozoites; [2]),Number of liverstage hypnozoites per well (P. vivax hypnozoites; [3]),Number of liverstage hypnozoites per well (P. vivax hypnozoites; [4]),Hypnozoites per well (P. vivax hypnozoites; 20 uM),IC50 (P. vivax hypnozoites; Plasmodium vivax),"hypnozoites (fold change to DMSO) mean diff (P. vivax hypnozoites; isolate 1, 20 µM)","hypnozoites (fold change to DMSO) mean diff (P. vivax hypnozoites; isolate 2, 20 µM)",Nucleus counts per well ([1]; 1 uM),Nucleus counts per well ([1]; 2.5uM),Nucleus counts per well ([1]; 5 uM),Nucleus counts per well ([1]; 10uM),"Nucleus counts per well ([1]; 20uM, P. vivax-infected wells)",Percentage of live HepG2 cells compared with diluent controls (HepG2 cells; 1 μM),Percentage of live HepG2 cells compared with diluent controls (HepG2 cells; 2.5 μM),Percentage of live HepG2 cells compared with diluent controls (HepG2 cells; 5 μM),Percentage of live HepG2 cells compared with diluent controls (HepG2 cells; 10 μM),other results
Fc1ccc(-c2ccnc(N3CCNCC3)c2)c(OCCc2cccnc2)c1 [Compound 12l],5 and 8 and 2,6 and 4 and 1,5 and 7 and 0,1 and 14 and 0,0 per well (2×) and 5 per well,0 per well (2×) and 5 per well,0 per well,0 (2×) and 5,2.1 µM,1.000,0.828,15910 per well and 14650 per well,13010 per well and 13310 per well,13030 per well and 13070 per well,13130 per well and 13070 per well,11440 per well and 13460 per well,89.7539% and 87.5192%,87.1294% and 87.1034%,86.8955% and 86.7396%,88.7665% and 86.09%,"Percentage of live HepG2 cells compared with diluent controls (HepG2 cells; 20 μM): 76.2415% and 75.9816%; Number of liverstage Schizonts per well (P. vivax schizonts; [5]): 0 per well (2×) and 1 per well; Number of liverstage Schizonts per well (P. vivax schizonts; [6]): 4 per well and 7 per well and 1 per well; Number of liverstage Schizonts per well (P. vivax schizonts; [7]): 2 per well and 7 per well; Schizonts per well (P. vivax schizonts; Isolate 2, 1.25 uM): 11 per well and 13 per well and 18 per well; Schizonts per well (P. vivax schizonts; Isolate 2, 2.5 uM): 11 per well and 12 per well; Schizonts per well (P. vivax schizonts; Isolate 2, 5 uM): 6 per well and 8 per well and 9 per well; Schizonts per well (P. vivax schizonts; Isolate 3, 1.25 uM): 12 per well and 19 per well; Schizonts per well (P. vivax schizonts; Isolate 3, 2.5 uM): 8 per well and 16 per well; Schizonts per well (P. vivax schizonts; Isolate 3, 5 uM): 7 per well and 13 per well; Schizonts per well (P. vivax schizonts; Isolate 3, 10 uM): 5 per well and 9 per well; IC50 (P. vivax schizonts): 2.9 to 4.7 µM; schizonts (fold change to DMSO) mean diff (P. vivax schizonts; isolate 1, 20 µM): 0.983; schizonts (fold change to DMSO) mean diff (P. vivax schizonts; isolate 2, 20 µM): 0.7736; schizonts (fold change to DMSO) mean diff (P. vivax schizonts; isolate 3, 20 µM): 0.6932"
c1cncc(CCOc2ccc3ccccc3c2-c2ccnc(N3CCNCC3)c2)c1 [Compound 30c],8 and 15 and 7,5 and 6 and 12,0 and 5 and 13,5 and 0 and 4,0 per well and 1 per well and 4 per well,4 per well (2×) and 1 per well,0 per well,4 (2×) and 1,3.8 µM,0.939,0.690,12390 per well and 13530 per well,13960 per well and 13570 per well,14060 per well and 13800 per well,13530 per well and 13880 per well,14090 per well and 14800 per well,102.591% and 103.526%,103.812% and 93.9636%,93.7037% and 93.0801%,92.5344% and 91.9887%,"inhibition at 20 µM (P. vivax hypnozoites; Plasmodium vivax, 20 µM): > 75%; Percentage of live HepG2 cells compared with diluent controls (HepG2 cells; 20 μM): 79.2818% and 86.3846%; Number of liverstage Schizonts per well (P. vivax schizonts; [5]): 0 per well (2×) and 6 per well; Number of liverstage Schizonts per well (P. vivax schizonts; [6]): 3 per well and 4 per well and 6 per well; Number of liverstage Schizonts per well (P. vivax schizonts; [7]): 1 per well and 3 per well; Schizonts per well (P. vivax schizonts; Isolate 2, 1.25 uM): 12 per well and 14 per well and 13 per well; Schizonts per well (P. vivax schizonts; Isolate 2, 2.5 uM): 9 per well and 14 per well and 11 per well; Schizonts per well (P. vivax schizonts; Isolate 2, 5 uM): 7 per well and 10 per well and 9 per well; Schizonts per well (P. vivax schizonts; Isolate 2, 10 uM): 4 per well and 5 per well and 6 per well; Schizonts per well (P. vivax schizonts; Isolate 2, 20 uM (Fig. 5c-d)): 3 per well and 4 per well and 6 per well; Schizonts per well (P. vivax schizonts; Isolate 3, 1.25 uM): 13 per well and 10 per well; Schizonts per well (P. vivax schizonts; Isolate 3, 2.5 uM): 12 per well and 9 per well; Schizonts per well (P. vivax schizonts; Isolate 3, 5 uM): 7 per well and 10 per well; IC50 (P. vivax schizonts): 2.7 to 4.9 µM; schizonts (fold change to DMSO) mean diff (P. vivax schizonts; isolate 1, 20 µM): 0.900; schizonts (fold change to DMSO) mean diff (P. vivax schizonts; isolate 2, 20 µM): 0.7547; schizonts (fold change to DMSO) mean diff (P. vivax schizonts; isolate 3, 20 µM): 0.8636"
